Reference: patent US7049289B1, “Labelled glutamine and lysine analogues” (Amersham PLC, priority 1998, dated 2006)
*1 amine or outer side, *2 acyl side, *3 side chain or, on linkers, in order; H or OH if unused. Glutaryl = O=C(CCCC(=O)[*:2])[*:1]; code Z = not defined here

Key:
[1] = target: T1, fibrin (in vitro human plasma clot) (Homo sapiens, UniProt P02671+P02675+P02679); assay: Incorporation into human plasma clots in vitro; format: biochemical; conditions: for % specific uptake: % retained (with thrombin) - % retained (no thrombin); for % retained (no thrombin): control without thrombin and calcium chloride (non-specific binding); for % retained (with thrombin): human plasma clot, 60 minutes, ca. 20° C.
T1 construct: about 400 μl of human plasma containing the radiolabelled substrate; from tissue; host or cells: human plasma, clotted in vitro with added thrombin and calcium chloride
T1 sequence (P02671 20-644 isoform P02671-2 limits assumed): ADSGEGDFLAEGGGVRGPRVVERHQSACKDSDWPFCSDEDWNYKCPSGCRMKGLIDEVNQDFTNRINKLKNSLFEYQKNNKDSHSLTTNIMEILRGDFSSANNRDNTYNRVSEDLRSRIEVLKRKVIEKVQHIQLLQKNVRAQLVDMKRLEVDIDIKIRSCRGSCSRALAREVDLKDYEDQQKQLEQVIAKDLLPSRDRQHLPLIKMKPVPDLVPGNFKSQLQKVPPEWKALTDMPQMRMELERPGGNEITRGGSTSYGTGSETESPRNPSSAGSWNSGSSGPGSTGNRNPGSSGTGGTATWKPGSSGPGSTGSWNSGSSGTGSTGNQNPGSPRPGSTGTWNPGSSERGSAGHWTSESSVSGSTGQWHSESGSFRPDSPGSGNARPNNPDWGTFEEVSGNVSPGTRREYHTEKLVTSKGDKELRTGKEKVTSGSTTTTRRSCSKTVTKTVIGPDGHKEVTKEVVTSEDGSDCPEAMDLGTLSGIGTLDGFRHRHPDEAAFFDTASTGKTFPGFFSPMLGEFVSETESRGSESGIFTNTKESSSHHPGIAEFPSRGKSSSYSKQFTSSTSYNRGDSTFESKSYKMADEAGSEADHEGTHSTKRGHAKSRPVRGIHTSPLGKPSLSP
T1 sequence (P02675 45-491 limits assumed): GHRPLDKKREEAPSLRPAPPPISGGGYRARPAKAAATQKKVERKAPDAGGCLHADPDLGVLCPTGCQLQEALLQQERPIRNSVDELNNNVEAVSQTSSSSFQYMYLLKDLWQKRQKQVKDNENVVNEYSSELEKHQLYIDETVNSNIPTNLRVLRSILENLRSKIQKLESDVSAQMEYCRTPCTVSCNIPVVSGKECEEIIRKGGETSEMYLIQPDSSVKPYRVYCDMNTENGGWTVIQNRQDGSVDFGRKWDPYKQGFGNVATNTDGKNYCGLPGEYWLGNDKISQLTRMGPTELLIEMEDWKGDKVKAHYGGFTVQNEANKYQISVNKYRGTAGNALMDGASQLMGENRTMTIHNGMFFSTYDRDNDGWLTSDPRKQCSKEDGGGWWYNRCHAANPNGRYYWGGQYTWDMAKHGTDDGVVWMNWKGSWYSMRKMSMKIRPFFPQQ
T1 sequence (P02679 27-437 isoform P02679-2 limits assumed): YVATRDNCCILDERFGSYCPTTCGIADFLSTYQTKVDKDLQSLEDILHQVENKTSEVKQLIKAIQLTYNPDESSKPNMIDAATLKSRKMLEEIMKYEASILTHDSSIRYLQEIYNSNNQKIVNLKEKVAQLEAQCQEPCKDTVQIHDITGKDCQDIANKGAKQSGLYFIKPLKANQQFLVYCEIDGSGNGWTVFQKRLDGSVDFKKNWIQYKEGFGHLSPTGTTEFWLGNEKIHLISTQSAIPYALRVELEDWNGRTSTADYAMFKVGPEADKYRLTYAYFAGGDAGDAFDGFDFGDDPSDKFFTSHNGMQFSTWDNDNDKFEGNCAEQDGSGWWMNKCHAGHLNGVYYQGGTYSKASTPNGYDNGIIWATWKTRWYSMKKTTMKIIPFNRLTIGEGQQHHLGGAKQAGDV
Protocol: Incorporation of radiolabelled substrates into fibrin was investigated by induction of an in vitro human plasma clot in the following manner. To a siliconised 5 ml glass vial was added, (a) 800 μl of Tris(hydroxymethyl)aminomethane buffered saline pH 7.5 containing calcium chloride (50 mM Tris, 150 mM sodium chloride, 4 mM calcium chloride.), (b) about 40 μl of physiological salt solution containing 100 units of thrombin per ml, (c) about 400 μl of human plasma containing the radiolabelled substrate at a concentration of typically 10 kBq/ml. To aid induction of clot a roughened glass rod was added to the reaction vial. Control vials were prepared similarly but with the omission of thrombin and calcium chloride.
After incubation of the test solution at ambient laboratory temperature (ca. 20° C.) for 60 minutes the reaction was discontinued with the addition of about 400 μl of a cold solution of 33.5 mM ethylenediaminetetra-acetic acid disodium salt. Clots were separated from serum by vacuum filtration onto […] nitrocellulose filters (pre-soaked in 1.5% BSA/tris(hydroxymethyl)aminoethae buffered saline pH 7.5 containing 0.1% Tween 20) and washed with about 2×10 ml of tris(hydroxymethyl)aminomethane buffered saline pH 7.5 containing Tween 20 to a final concentration of 0.1% v/v. The proportion of total radioactivity was calculated by counting in suitable detection apparatus.
The fraction of radioactivity retained on the filter, after subtraction of the non-specific binding determined from the control, is a measure of incorporation into the filtered clots.

[2] = Incorporation into clots induced in a rat model (rat inferior vena cava model); format: in vivo, rat (Male Wistar); conditions: for % id/g (clot) / Rel. Conc. (cpm/g of clot by dose/g animal): sacrificed after 60 min
Protocol: The rats (Male Wistar, 250–350 g) were anaesthetised with 15% urethane. After laparotomy, the vena cava was isolated and freed of surrounding fat tissue. […] The compounds were injected 5 min (fresh clot) and 60 min (aged clot) post-induction. After 60 min the animals were sacrificed and the clot removed, weighed and counted. Other tissues e.g. blood, lung, heart, were also dissected and counted. The uptake of tracer into the clot was determined as the relative concentration (cpm/g of clot by dose/g animal) and clot to background tissue.

[3] = Aged Clots: injected 60 min post-induction
[4] = Fresh Clots: injected 5 min post-induction

Row | Substance | % specific uptake [1] [%] | % retained (no thrombin) [1] [%] | % retained (with thrombin) [1] [%] | Clot/blood ([2]; Aged Clots) | Clot/heart ([2]; Aged Clots) | Clot/liver ([2]; Aged Clots) | Clot/lung ([2]; Aged Clots) | % id/g (clot) [2, 3] [% id/g] | Rel. Conc. (cpm/g of clot by dose/g animal) [2, 3] | Clot/blood ([2]; Fresh Clots) | Clot/heart ([2]; Fresh Clots) | Clot/liver ([2]; Fresh Clots) | Clot/lung ([2]; Fresh Clots) | % id/g (clot) [2, 4] [% id/g] | Rel. Conc. (cpm/g of clot by dose/g animal) [2, 4] | in vitro clot uptake (in words) [1]
1 | Z-NQEQVSPYAAAAG-Pn216 ({code Z}-NQEQVSPYAAAAG-Pn216; reading uncertain; also: 99mTc complex, printed as Z-NQEQVSPYAAAAG-Pn216) [^99mTc-Cmpd 42] | 14.0 | 0.2 | 14.2 | 5 | 21 | 6 | 7 | 0.4 ± 0.1 | 1.3 ± 0.3 | 2 | 1 | 63 | 0.3 | 0.3 ± 0.1 | 0.3 ± 0.2 | –
2 | Fmoc-NQQQ(D-V)S(OMe)PLG-Pn216 [^99mTc-Cmpd 37] | 12.8 | 0.2 | 13.0 | 0.4 | 2 | 9 | 1 | 0.2 ± 0.03 | 0.5 ± 0.1 | 0.6 | 1 | 1 | 0.7 | 0.4 ± 0.2 | 0.9 ± 0.4 | –
3 | Ac-NQEQVSP(I2-Y)TLLKG-Pn216 [^99mTc-Cmpd 23] | 63.7 | 0.1 | 63.8 | 13 | 1 | 1 | 1 | 7.5 ± 2.5 | 17.6 ± 4.6 | 6 | 17 | 21 | 6 | 7.6 ± 1.8 | 18.2 ± 4.1 | –
4 | Ac-NQEQVSPYTLL(D-K)G-Pn216 [^99mTc-Cmpd 28] | 41.9 | 0.2 | 42.1 | 17 | 3 | 1 | 2 | 4.5 ± 1.1 | 13.1 ± 3.4 | 13 | 31 | 35 | 19 | 3.5 ± 2.0 | 9.7 ± 5.0 | –
5 | Pn216-CO(CH2)3CO-G(D-K)(D-L)(D-L)(D-T)(D-Y)(D-P)(D-S)(D-V)NH2 [^99mTc-Cmpd 36] | 8.6 | 0.1 | 8.7 | 0.6 | 18 | 4 | 10 | 0.1 ± 0.02 | 0.2 ± 0.1 | 1 | 3 | 4 | 1 | 0.2 ± 0.1 | 0.7 ± 0.3 | significant reduction in uptake
6 | Ac-(D-N)QEQVSP(D-Y)TLL(D-K)G-Pn216 [^99mTc-Cmpd 32] | 19.8 | 0.4 | 20.2 | 3 | 43 | 21 | 15 | 0.7 ± 0.1 | 2.0 ± 0.4 | 10 | 26 | 27 | 11 | 1.7 ± 0.7 | 4.6 ± 1.9 | –
7 | Ac-NQEQ(D-V)(D-S)P(D-Y)TLL(D-K)G-Pn216 [^99mTc-Cmpd 31] | 7.6 | 0.1 | 7.7 | 0.6 | 9 | 2 | 4 | 0.2 ± 0.1 | 0.6 ± 0.2 | 0.6 | 2 | 3 | 1 | 0.3 ± 0.2 | 0.9 ± 0.6 | significant reduction in uptake
8 | Ac-NQEQVSP(D-Y)TLL(D-K)G-Pn216 [^99mTc-Cmpd 29] | 21.0 | 0.1 | 21.1 | 11 | 67 | 29 | 30 | 3.8 ± 0.4 | 10.0 ± 1.7 | 14 | 44 | 44 | 20 | 4.7 ± 1.9 | 13.0 ± 4.9 | –
9 | p-EAQIVG-Pn44 [^99mTc-Cmpd 46] | 6.1 | 0.2 | 6.3 | 4 | 5 | 1 | 3 | 0.5 ± 0.2 | 1.3 ± 0.6 | 5 | 6 | 1 | 3 | 0.8 ± 0.4 | 2.0 ± 0.7 | significant reduction in uptake
10 | Pn216-CO(CH2)3CO-NQEQVSPYTLLKG-NH2 ({Pn216-Glutaryl}-NQEQVSPYTLLKG-NH2; also: 99mTc complex) [^99mTc-Cmpd 39] | 23.0 | 0.1 | 23.1 | 15 | 43 | 11 | 12 | 2.4 ± 0.3 | 8.2 ± 1.1 | 9 | 29 | 31 | 14 | 2.5 ± 0.3 | 9.0 ± 1.1 | –
